The subject of data set [1] is Pseudomonas aeruginosa ATCC 27853. The data set can be described thus: Single-dose growth inhibition, Pa. The class given is cell-based. The protocol:
Inhibition of bacterial growth was determined by measuring the absorbance at 600 nm (OD600), using a Tecan M1000 Pro monochromator plate reader. Growth inhibition was calculated for each well, relative to the reference growths determined from a negative control (media only) and positive control (bacteria without inhibitors) incubated in the same plate. A single dose of 32 μg/mL of COE (final concentration) was used for each test.
(§1) Percentage growth inhibition of an individual sample was calculated based on growth in a reference well determined from negative controls (media only) and positive controls (bacterial/fungal media without inhibitors). Negative inhibition values indicate that the growth rate (or OD600) is higher compared to the reference growth (bacteria/fungi only, set to 0% inhibition). The growth rates for all bacteria and fungi may vary at −/+10%, which were within the reported normal distribution of bacterial/fungal growth. Any significant variations (or outliers/hits) were identified by the modified Z-Score, and the active compounds were selected by a combination of inhibition values and Z-Score.
(§2) A M(i) value of >|2.5| (absolute) would classify the sample as outliers or hits. Active samples were denoted as compounds with inhibition values equal to or above 80% and absolute Z-Score above |2.5| for either replicate (n=2 on different plates). Partial active samples were denoted as compounds with inhibition values from 50% to <80%, or absolute Z-Score below |2.5|.

Data set [2] concerns organism classes (Gram-negative, Gram-positive and fungi). The data set can be described thus: Single-dose screening summary by organism class. The class given is cell-based. As to conditions: 32 μg/mL; 0 = no activity. Here is the method:
as §1
Z-Score analysis was carried out to investigate outliers or hits among the samples. The Z-Score was calculated based on the sample population using a modified Z-Score method which accounts for possible skewed sample population. The modified method uses median and MAD ([…]) instead of average and standard deviation, and a scaling factor (Iglewicz, B. & Hoaglin, D. C. Volume 16: How to Detect and Handle Outliers. The ASQC Basic Reference in Quality Control: Statistical Techniques, 1993). The equation to calculate the modified Z-Score value is as follow: […]
as §2

Data set [3] concerns MRSA BAA-40. The data set can be described thus: Time-kill assay. It is filed as cell-based, Staphylococcus aureus. As to conditions: 32 μg/mL; for Reduction of viability of MRSA BAA-40 compared with vancomycin: FIG. 11a. Here is the method:
A stationary-phase culture of MRSA BAA-40 was diluted to 2×10^8 CFU/mL in fresh MHB. 500 μL of this suspension was then mixed with another 500 μL of MHB containing twice the desired final concentrations of COEs and vancomycin (32 μg/mL). The tube was incubated at 37° C. with 200 rpm shaking. Aliquots were removed at various time points and were serially diluted in PBS, and plated on MHB plates to enumerate CFU/mL.

For data set [4], the system named is MRSA BAA-40. The data set can be described thus: Resistance evolution experiment (serial passage). The settings on record: for MIC on MRSA BAA-40 during serial passage: from the 5th day onwards, 17 days; for Tendency to cause resistance in the bacteria: serial passage for 17 days. It is filed as cell-based, Staphylococcus aureus. Here is the method: To evaluate the propensity of COE to induce resistance, a serial passage of MRSA BAA-40 in MHB medium containing 100-fold diluted stationary-phase culture with increasing concentrations of COE was performed.

For data set [5], the system named is Methicillin-resistant Staphylococcus aureus (MRSA BAA-40). The data set can be described thus: MIC against MRSA BAA-40. As to conditions: for MIC in comparison with vancomycin: all three strains: E. coli K12, S. aureus 25923, MRSA BAA-40 (FIG. 5b). The class given is cell-based. The protocol:
(§3) The respective minimum inhibition concentration (MIC) of each COE molecule was determined using a broth microdilution method. Briefly, COEs were diluted via a 2-fold dilution series in 100 μL of either Muller Hinton Broth (MHB) for E. coli and S. aureus or Brain Heart Infusion Broth (BHI) for E. faecalis in a 96-well plate to achieve the desired final concentration. Subsequently, each well was inoculated with 100 μL of 1×10^6 colony forming units (CFU) mL^−1 of the respective microorganism in MHB for E. coli or BHI for E. faecalis to achieve an inoculum density of 5×10^5 CFU mL^−1. The plates were then incubated at 37° C. with shaking (200 rpm) for 18 hrs. […] The results were obtained in triplicate.
(§4) The antimicrobial effects of COE-D62N and COE-D82N were also tested on the Gram-positive Staphylococcus aureus 25923 and Methicillin-resistant Staphylococcus aureus(MRSA BAA-40), in comparison with vancomycin (FIG. 5b).

For data set [6], the system named is Staphylococcus aureus on reconstituted human epidermis (RHE). The data set can be described thus: Reconstituted human epidermis skin model inoculated with S. aureus. As to conditions: 10× the MIC of S. aureus. The class given is cell-based. The protocol:
Reconstituted human epidermis (RHE) was cultured in multiwell plates on polymer membrane inserts (0.5 cm^2 surface area) using immortalized human keratinocytes (250,000 NTERTS) in CnT prime media (from CellnTec) for 48 hours after which they were transferred to CnT 3D prime media for 24 hours before air lifting. The media was changed every 48 hours thereafter and RHE was grown for at least 7 days. After the stratified layers of the RHE were formed, a standardised inoculum of Staphylococcus aureus was added to RHEs (with the exception of the negative control), followed by the addition of 10× the MIC of S. aureaus of antimicrobial COEs.

Data set [7] concerns Staphylococcus aureus 25923. The data set can be described thus: MIC against S. aureus 25923. The class given is cell-based. The protocol:
as §3, §4

The subject of a further data set is HepG2 cells. The data set can be described thus: Toxicity on HepG2 cells. It is filed as cell-based. The settings on record: Homo sapiens.
Data set [8] is described as follows: Intrinsic hepatic clearance in mice. The class given is in vitro ADME.
A short description of data set [9]: Aqueous solubility (further tests). It is filed as physicochemical. As to conditions: aqueous medium (not further specified).
In the next data set the test system is human erythrocytes. The data set can be described thus: Haemolysis assay. It is filed as cell-based. The protocol:
1 mL of mammalian blood, collected from a healthy donor, was mixed with 9 mL of PBS and centrifuged at 1,000 rpm for 5 min. Red blood cell pellet was collected and subsequently washed with PBS three times and diluted to a final concentration of 5% v/v. The various COEs were dissolved in PBS and two folds serial diluted in a 96-well microplate. 50 μL of red blood cell stock was mixed with 50 μL of COE solution in each well and incubated for 1 hr at 37° C. under shaking. The microplate was centrifuged at 1,000 rpm for 10 min. 80 μL aliquots of the supernatant were then transferred to a new 96-well microplate and diluted with another 80 μL of PBS. Haemolytic activity was calculated by measuring absorbance at 540 nm using a 96-well plate spectrophotometer. Triton X-100 (0.1% in PBS), which is able to lyse red blood cells, completely was used as positive control, while PBS was used as negative control. The haemolysis percentage was calculated using the following formula:
[formula] where Op is the absorbance of the COE-treated sample, Ob is the absorbance of negative control and Ot is the absorbance of positive control. Results and Discussions
The selectivity of COEs towards bacteria or mammalian cells can be quantified using the ratio between the concentrations leading to 50% lysis of human erythrocytes (HC50) and the MIC value.

The nature of data set [10]: Intrinsic clearance in human. It is filed as in vitro ADME.
The mark [11] stands for this setting: ATCC27853, read-out: Growth inhibition Pa.
Setting [12] is: ATCC27853, 32 μg/mL single dose, n=2, read-out: Growth inhibition Pa.

From patent US12157713B2, “Conjugated oligoelectrolytes as antimicrobial agents” (Nanyang Technological University, priority 2018, dated 2024) come the findings set out here.

Each structure is given as a SMILES string. Where two headings read alike, the source gives them in different places.

As a reminder, the inhibition is the relative decrease from the control value, in per cent. On to `C[N+](C)(C)CCCCOc1ccc(/C=C/c2ccc(OCCCC[N+](C)(C)C)cc2)cc1` [COE-D4], for which, in data set [1] (setting [11]), the inhibition at 32 µg/mL was < 50%. The “Activity: number of organism classes the compound has been found active against” value (“Activity: number” below) in data set [2] was 2.
On to `C[N+](C)(C)CCCCCCOc1ccc(/C=C/c2ccc(OCCCCCC[N+](C)(C)C)cc2)cc1` [COE-D6], for which, in [1] (setting [11]), the inhibition at 32 µg/mL was < 50%. Moreover, in data set [2], the “Activity: number” value was 3.
The like results for `C[N+](C)(C)CCCCCCCCOc1ccc(/C=C/c2ccc(OCCCCCCCC[N+](C)(C)C)cc2)cc1` [COE-D8] were, in that order, 50 to 80% and 3.
In general, MIC refers to the smallest concentration in the dilution series that meets the test's criterion for growth inhibition. Low values mean greater potency, high ones weaker potency. Usually IC50 stands for the midpoint of a concentration-inhibition curve. By solubility is commonly meant the dissolved amount per volume that the medium holds. A high value points to a readily soluble substance. For the compound `CN(C)CC[N+](C)(C)CCCCCCOc1ccc(/C=C/c2ccc(OCCCCCC[N+](C)(C)CCN(C)C)cc2)cc1` [COE-D62N], the “Reduction of viability of MRSA BAA-40 compared with vancomycin” value with MRSA BAA-40 [3] is “much faster than that of vancomycin”. Besides, in the data set with MRSA BAA-40 [4], the “MIC on MRSA BAA-40 during serial passage” value is “remained relatively constant” and the “Tendency to cause resistance in the bacteria” value is “low tendency to cause resistance”. Besides, the MIC in data set [5] (Staphylococcus aureus) is 1 µg/mL. Moreover, in data set [5], the “MIC in comparison with vancomycin” value is recorded as “lower MIC than vancomycin”. Besides, the “Skin structure of infected RHE model after treatment” value in data set [6] is recorded as “intact skin structure”. Also, it took 1 µg/mL to inhibit growth in [7] (MIC). For the same compound, in data set [1] (setting [12]), the inhibition at 32 µg/mL is < 50%. Further, the IC50 with HepG2 cells is > 30 µM. For the same compound, the “intrinsic hepatic clearance in mice” value in data set [8] is on record as “good”. In data set [9], the solubility was > 200 µM. Also, the Toxicity towards erythrocytes result with human erythrocytes is “non-toxic”. Further, the “intrinsic clearance in human” value in [10] is listed as “good”. Also, the “Activity: number” value in data set [2] worked out at 3.
Consider `CN(C)CC[N+](C)(C)CCCCCCCCOc1ccc(/C=C/c2ccc(OCCCCCCCC[N+](C)(C)CCN(C)C)cc2)cc1` [COE-D82N], for which, in the data set on MRSA BAA-40 [3], the “Time to reduce viability of MRSA close to the minimum” value was ≤ 2 h and the “Reduction of viability of MRSA BAA-40 compared with vancomycin” value was “much faster than that of vancomycin”. Moreover, in the data set with MRSA BAA-40 [4], the “MIC on MRSA BAA-40 during serial passage” value is given as “remained relatively constant” and the “Tendency to cause resistance in the bacteria” value is given as “low tendency to cause resistance”. Also, the “MIC in comparison with vancomycin” value in data set [5] was “lower MIC than vancomycin”. For the same compound, in [6], the “Skin structure of infected RHE model after treatment” value was “intact skin structure”. The inhibition at 32 µg/mL in data set [1] (setting [12]) was in the range of 50 to 80%. Besides, in data set [2], the “Activity: number” value stood at 3.
